This note sets out measurements from patent publication US9062051B2, “Compounds and pharmaceutical compositions thereof for the treatment of proliferative disorders” (GALAPAGOS NV, priority 2014, dated 2015).

One data set concerns the target T1, EphA4 (UniProt Ref: P54764) (Homo sapiens, UniProt P54764).
T1 construct: purchased Reaction Biology
Kind of data set: EphA4 assay (Reaction Biology HotSpot radioactive kinase assay). The conditions noted are these: EphA4 potency; ATP 10 μM. In kind it is biochemical. On the procedure:
Inhibition of EphA4 (UniProt Ref: P54764) by a test compound is determined by a commercially available Reaction Biology proprietary nanoliter radioactive HotSpot^SM assay (Reaction Biology, One great valley parkway, Suite 2, Malvern Pa., 19355, USA). The principle of the assay consists of the measurement of incorporated ^33P into poly[Glu:Tyr] (4:1) (0.2 mg/mL) when the substrate is phosphorylated by the enzyme using [^33P]-γ-ATP and ATP (10 μM).
To determine the IC50, a serial dilution of compound is tested starting from 10 or 3 μM (highest dilution) with a 1/3 dilution.

The nature of data set [1]: In vivo efficacy in the rat MNX (meniscectomised) model of osteoarthritis, OARSI score. The arrangement: species or system female Lewis rat. The settings on record: versus MNX-vehicle. From the text:
In vivo efficacy was studied in a female Lewis meniscectomised rat (MNX) model. The MNX rat model is a well-validated disease model of osteoarthritis (Janusz et al., 2002; Pritzker et al., 2006; Bendele et al., 2001).
Osteoarthritis is induced by meniscectomy at day 0 (D0) in the right leg of each rat by a transection of the medial collateral ligament and 4 mm of ligament are removed. Internal part of the meniscus is transected vertically into two flaps which are pushed to the front and the back of the synovial cavity. Sham animals undergo only anaesthesia, skin and muscle incision then suture. On day 1, rats are randomly assigned to a treatment group (n=20 per group) according to their body weight, in order to have a homogenous distribution. From D2 to D21, rats are dosed per os (po) once daily (qd) or twice a day (bid) with compounds formulated in methylcellulose (MC) 0.5% or in HPβCD 10% pH3.0.
After at least 7 days of treatment, blood is sampled at 4 time points post administration: 0, 1, 3 and 6 h (and assuming 24 h is equal to the pre-dose sample), in order to determine steady-state plasma exposure.
At sacrifice, the right tibia of each rat is collected and processed for histological analysis. After 48 h of fixation in 4% formaldehyde, tibias are decalcified in Osteosoft for 7 days, and cut into 2 half parts prior to embedding face to face in paraffin. Five series of sections are cut at 200 μm intervals, covering about 1.5 mm of the middle part of the bone. One series of slides is stained with Safranin O and light green for morphological evaluation and OARSI scoring. The other series of slides are mounted with DAPI for chondrocyte density measurement.
The extent of cartilage injury reflecting osteoarthritis in the tibial plateau is evaluated and scored using the OARSI method based on the grading and the staging of cartilage lesion (Pritzker et al., 2006). The OARSI scoring is assessed in a blinded manner by two different readers. For each tibia, one score is attributed as the median of the OARSI score of the 5 sections.
OARSI score=grade×stage (1 to 24)
Grade=lesion depth into cartilage area, providing information on arthritis severity.
Stage=lesion extent over cartilage surface, providing information on arthritis extent.
For statistical analysis, medians of groups are compared with a stratified Kruskal-Wallis test followed by Dunnett multiple comparison post hoc test.
Significance levels: *p<0.05; **p<0.01; ***p<0.001 versus MNX-vehicle. Statistical analyses are done on all groups of the studies

The test system of another data set is MDA-MB-231 cells. As to the kind of experiment: Mouse xenograft model of human triple negative breast cancer (MDA-MB-231), tumorous growth inhibition. In kind it is in vivo, Female BALB/c Mice. The conditions noted are these: for RTV (Relative Tumor Volume) / T/C (Tumour Vs Control) / TGI (Tumor Growth Inhibition): p.o., qd. On the procedure:
Animals (Female BALB/c Mice, Harlan, 51930, 18-20 g) are provided with filtered tap water and standard chow ad libitum and maintained at 22±2° C. in 55±10% humidity on a 12 h light/dark cycle.
Paclitaxel used as a positive control is formulated by 1/3 dilution of commercial solution (Fresenius kabi, 871WF014/4) in saline.
The test compounds for po administration are formulated in 0.5% methylcellulose (VWR, ref AX021233).
MDA-MB-231 cell line is obtained from the ATCC collection (ref HTB-26). The cells are then cultured in RPMI 1640 medium supplemented with […] (Gibco 15140-148) and 1% (v/v) L-Glutamine 200 mM (Gibco 25030-024) at 37° C. in a 5% CO2 incubator.
5 million MDA-MB-231 cells/mice in 0.1 mL of 50% Matrigel (BD biosciences, LDEV free 256235)+50% D-PBS 1× (Gibco 14190-086) are injected by subcutaneous route on the upper back of 120 mice. Prior to implantation, mice are anesthetized by intra-peritoneal injection with a 0.1 mL/10 g dose of anaesthetic solution (18 mL NaCl, 0.9%+0.5 mL xylazine, +1.5 mL ketamine. […]
Body weight, and tumor growth is recorded twice a week during the course of treatment.
After 26 days the treatment is stopped, in each group half of the mice are euthanized for tissue collection, and the other half is kept for a further 7 days, during which period body weight and tumour sized are measured.
In sacrificed mice, blood and tumours are collected, analysed, and the effect of the test compounds is compared with controls (vehicle and paclitaxel).
The values were obtained using the following calculations
Relative Tumor Volume (RTV):
Tumor Growth Inhibition (TGI) TGI=1−T/C

A short description of data set [2]: Plasma exposure at day 7 in the MDA-MB-231 xenograft experiment. It is filed as in vivo, Female BALB/c Mice. The settings on record: for AUC: female, BALB/c, mouse, plasma, po. On the procedure:
5 million MDA-MB-231 cells/mice in 0.1 mL of 50% Matrigel (BD biosciences, LDEV free 256235)+50% D-PBS 1× (Gibco 14190-086) are injected by subcutaneous route on the upper back of 120 mice. Prior to implantation, mice are anesthetized by intra-peritoneal injection with a 0.1 mL/10 g dose of anaesthetic solution (18 mL NaCl, 0.9%+0.5 mL xylazine, +1.5 mL ketamine. After implantation, tumours are regularly measured with a calliper, and mice with a mean tumour volume of about 200 mm^3 are randomized into groups of 10 individuals, and each group is dosed either with vehicle (p.o.), paclitaxel as control (3×/week, 20 mg/kg i.p.), or a test compound at doses of 3, 10, 30 or 100 mg/kg (p.o., QD, in 10 mL/kg administration volume)
Even at a 10 fold higher dosing (300 mg/kg, p.o.), Comparative Compound A remains 3.9 fold less exposed than Compound 55.

A word on the IC50: it is the concentration at which inhibition is half-maximal. Usually AUC stands for concentration integrated over time. Lower therefore signals low exposure.

Entries after “also recorded” stand apart in the source; their conditions may differ. Where only a bound is given, the exact number is not on record here.

T1 sequence (P54764 20-986): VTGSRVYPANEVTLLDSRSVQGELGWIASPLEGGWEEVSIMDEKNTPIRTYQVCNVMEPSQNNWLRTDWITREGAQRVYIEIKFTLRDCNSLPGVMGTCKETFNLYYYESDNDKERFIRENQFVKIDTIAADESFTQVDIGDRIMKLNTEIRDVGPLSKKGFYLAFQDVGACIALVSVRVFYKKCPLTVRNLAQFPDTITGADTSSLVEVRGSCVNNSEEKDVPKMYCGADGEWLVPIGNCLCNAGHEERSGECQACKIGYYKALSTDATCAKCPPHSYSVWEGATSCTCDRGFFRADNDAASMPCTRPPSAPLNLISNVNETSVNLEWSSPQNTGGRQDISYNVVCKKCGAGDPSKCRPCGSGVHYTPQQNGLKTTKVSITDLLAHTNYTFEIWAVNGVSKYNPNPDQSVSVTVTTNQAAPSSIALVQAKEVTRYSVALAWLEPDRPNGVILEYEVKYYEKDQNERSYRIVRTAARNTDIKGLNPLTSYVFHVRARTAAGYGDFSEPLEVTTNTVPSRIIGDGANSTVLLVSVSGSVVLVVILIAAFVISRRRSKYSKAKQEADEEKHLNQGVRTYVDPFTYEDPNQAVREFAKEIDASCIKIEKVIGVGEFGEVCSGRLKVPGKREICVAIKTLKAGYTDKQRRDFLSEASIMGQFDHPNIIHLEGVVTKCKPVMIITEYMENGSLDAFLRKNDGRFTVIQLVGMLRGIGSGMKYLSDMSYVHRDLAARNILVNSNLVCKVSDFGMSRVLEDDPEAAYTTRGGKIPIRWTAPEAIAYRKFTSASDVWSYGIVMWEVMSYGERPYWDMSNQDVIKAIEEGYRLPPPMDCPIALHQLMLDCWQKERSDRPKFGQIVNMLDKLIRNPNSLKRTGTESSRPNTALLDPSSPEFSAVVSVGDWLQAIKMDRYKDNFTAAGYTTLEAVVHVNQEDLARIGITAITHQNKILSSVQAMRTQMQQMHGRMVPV

`Cc1ccc(NC(=O)c2cccc(C(F)(F)F)c2)cc1-c1ccc2c(C(O)CN3CCOCC3)n[nH]c2n1` (stereo not shown) [Compound 2, N-{3-[3-(1-Hydroxy-2-morpholin-4-yl-ethyl)-1H-pyrazolo[3,4-b]pyridin-6-yl]-4-methyl-phenyl}-3-trifluoromethyl-benzamide]: at EphA4, the IC50 was in the range of 0.01 to 25 nM. For the same compound, the OARSI score in data set [1] (20 mg/kg) is on record as −17%, p < 0.05.
For `Cc1ccc(NC(=O)c2cccc(N(C)C)c2)cc1-c1ccc2c(C(O)CN3CCOCC3)n[nH]c2n1` (stereo not shown) [Compound 6, 3-Dimethylamino-N-{3-[3-(1-hydroxy-2-morpholin-4-yl-ethyl)-1H-pyrazolo[3,4-b]pyridin-6-yl]-4-methyl-phenyl}-benzamide], in data set [1] (30 mg/kg), the OARSI score result was “ns”.
Consider `COc1cc(OC)cc(C(=O)Nc2ccc(C)c(-c3ccc4c(C(C)O)n[nH]c4n3)c2)c1` (stereo not shown) [Compound 9, N-{3-[3-(1-Hydroxy-ethyl)-1H-pyrazolo[3,4-b]pyridin-6-yl]-4-methyl-phenyl}-3,5-dimethoxy-benzamide], for which the IC50 on EphA4 lay within 50 to 100 nM. Further, the OARSI score entry in data set [1] (30 mg/kg) is reported as “ns”.
For the compound `CCc1n[nH]c2nc(-c3cc(NC(=O)c4cc(OC)cc(OC)c4)cnc3C)ccc12` [Compound 13, N-[5-(3-Ethyl-1H-pyrazolo[3,4-b]pyridin-6-yl)-6-methyl-pyridin-3-yl]-3,5-dimethoxy-benzamide], in data set [1] (30 mg/kg), the OARSI score result is recorded as “ns”.
Regarding `COc1cc(OC)cc(C(=O)Nc2ccc(C)c(-c3ccc4c(C5(O)CC5)n[nH]c4n3)c2)c1` [Compound 29, N-{3-[3-(1-Hydroxy-cyclopropyl)-1H-pyrazolo[3,4-b]pyridin-6-yl]-4-methyl-phenyl}-3,5-dimethoxy-benzamide], on EphA4, the 50% inhibitory concentration (IC50) is above 100 nM. The OARSI score entry in data set [1] (15 mg/kg) is “ns”.
`Cc1ccc(NC(=O)c2cccc(C(F)(F)F)c2)cc1-c1ccc2c([C@H](C)O)n[nH]c2n1` [Compound 55, N-{3-[3-((S)-1-Hydroxy-ethyl)-1H-pyrazolo[3,4-b]pyridin-6-yl]-4-methyl-phenyl}-3-trifluoromethyl-benzamide]: the tumour growth result in the data set with MDA-MB-231 cells (30 mg/kg p.o., QD, 26 days treatment, MDA-MB-231 xenograft) was “complete block of tumour growth; also recorded: blocks tumorous growth”. In addition, in the data set with MDA-MB-231 cells (day 26, 30 mg/kg), the “RTV (Relative Tumor Volume)” value was 1.01, the “T/C (Tumour Vs Control)” value turned out to be 0.14% and the “TGI (Tumor Growth Inhibition)” value worked out at 99.86%. Besides, on EphA4, the 50% inhibitory concentration (IC50) fell in the range of 25 to 50 nM. Besides, the OARSI score in data set [1] (30 mg/kg) is listed as −23%, p < 0.05. In data set [2] (even if Compound A is administered at a 10 fold higher dose), the “exposure compared with comparative Compound A” value is given as “higher”. Besides, in data set [2] (day 7, 30 mg/kg p.o.), the exposure (AUC) was found to be 31 µg·h/mL. In data set [2] (plasma exposure at day 7, both at 30 mg/kg p.o.), the “fold higher exposure than the comparison compound A” value was above 24 fold.
For the compound `Cc1ccc(NC(=O)c2cccc(C(F)(F)F)c2)cc1-c1cc(C)c2c(N)n[nH]c2n1` [Compound A, N-(3-(3-amino-4-methyl-1H-pyrazolo[3,4-b]pyridin-6-yl)-4-methylphenyl)-3-(trifluoromethyl)benzamide], the “RTV (Relative Tumor Volume)” value in the data set on MDA-MB-231 cells (day 26, 30 mg/kg) came out at 3.40; in the data set with MDA-MB-231 cells (day 26, 100 mg/kg), 3.09; in the data set on MDA-MB-231 cells (day 26, 300 mg/kg), 4.74. In addition, the “T/C (Tumour Vs Control)” value with MDA-MB-231 cells (day 26, 30 mg/kg) came out at 54.89%; in the data set with MDA-MB-231 cells (day 26, 100 mg/kg) it was 47.80%; in the data set with MDA-MB-231 cells (day 26, 300 mg/kg), 85.40%. The “TGI (Tumor Growth Inhibition)” value in the data set with MDA-MB-231 cells (day 26, 30 mg/kg) is given as 45.11%; with MDA-MB-231 cells (day 26, 100 mg/kg), 52.20%; in the data set on MDA-MB-231 cells (day 26, 300 mg/kg), 14.60%. For the same compound, in the data set with MDA-MB-231 cells (dosed at 30, 100 or 300 mg/kg, 26 days treatment, MDA-MB-231 xenograft), the anti-tumour effect result was “shows a plateau of its anti-tumour effect and is not able to achieve the same effect on inhibition of tumour growth”. Moreover, the AUC in data set [2] (day 7, 30 mg/kg p.o.) is 1.28 µg·h/mL; in data set [2] (day 7, 100 mg/kg p.o.), 4.24 µg·h/mL; in data set [2] (day 7, 300 mg/kg p.o.), 7.92 µg·h/mL. In addition, the “fold less exposed than Compound 55” value in data set [2] (plasma exposure at day 7, Compound A at 300 mg/kg p.o. (10 fold higher dosing)) came out at 3.9 fold.
